Results from publication PMC4059350 (DNA repair, 2014).
Substitutions are numbered along the chain they refer to. pIC50: −log10 of the molar value.

Experiments:
[1] = biological target: T1, Msh2-Msh3 (Saccharomyces cerevisiae, UniProt P25336+P25847, P25336:Y942A); assay: ATPγS titration into steady-state coupled ATPase assay; type: biochemical
T1 sequence (P25847 1-964): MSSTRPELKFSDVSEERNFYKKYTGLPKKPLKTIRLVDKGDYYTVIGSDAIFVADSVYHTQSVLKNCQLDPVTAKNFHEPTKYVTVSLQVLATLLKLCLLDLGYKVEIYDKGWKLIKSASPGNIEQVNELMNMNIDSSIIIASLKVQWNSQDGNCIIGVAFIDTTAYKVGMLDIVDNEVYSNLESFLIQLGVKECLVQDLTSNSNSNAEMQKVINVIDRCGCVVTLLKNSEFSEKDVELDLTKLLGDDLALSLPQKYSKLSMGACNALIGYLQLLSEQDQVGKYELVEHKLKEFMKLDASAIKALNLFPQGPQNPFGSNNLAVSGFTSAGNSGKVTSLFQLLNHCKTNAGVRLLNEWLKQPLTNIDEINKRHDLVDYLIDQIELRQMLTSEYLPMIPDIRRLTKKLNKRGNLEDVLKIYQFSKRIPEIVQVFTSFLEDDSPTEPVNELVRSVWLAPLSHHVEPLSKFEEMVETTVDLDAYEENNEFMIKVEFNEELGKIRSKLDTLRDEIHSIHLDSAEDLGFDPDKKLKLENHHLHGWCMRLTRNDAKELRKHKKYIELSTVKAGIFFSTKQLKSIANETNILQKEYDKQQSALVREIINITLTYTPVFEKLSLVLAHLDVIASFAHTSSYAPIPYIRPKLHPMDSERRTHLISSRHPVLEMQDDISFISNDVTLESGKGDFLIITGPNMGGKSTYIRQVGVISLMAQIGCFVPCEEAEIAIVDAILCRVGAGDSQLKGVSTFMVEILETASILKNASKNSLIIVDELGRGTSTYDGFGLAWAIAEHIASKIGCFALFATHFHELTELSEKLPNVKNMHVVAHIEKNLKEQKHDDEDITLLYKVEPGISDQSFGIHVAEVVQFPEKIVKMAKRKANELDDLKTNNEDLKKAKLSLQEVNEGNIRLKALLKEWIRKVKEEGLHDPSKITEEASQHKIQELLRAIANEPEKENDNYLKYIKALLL
T1 sequence (P25336 1-1018 Y942A): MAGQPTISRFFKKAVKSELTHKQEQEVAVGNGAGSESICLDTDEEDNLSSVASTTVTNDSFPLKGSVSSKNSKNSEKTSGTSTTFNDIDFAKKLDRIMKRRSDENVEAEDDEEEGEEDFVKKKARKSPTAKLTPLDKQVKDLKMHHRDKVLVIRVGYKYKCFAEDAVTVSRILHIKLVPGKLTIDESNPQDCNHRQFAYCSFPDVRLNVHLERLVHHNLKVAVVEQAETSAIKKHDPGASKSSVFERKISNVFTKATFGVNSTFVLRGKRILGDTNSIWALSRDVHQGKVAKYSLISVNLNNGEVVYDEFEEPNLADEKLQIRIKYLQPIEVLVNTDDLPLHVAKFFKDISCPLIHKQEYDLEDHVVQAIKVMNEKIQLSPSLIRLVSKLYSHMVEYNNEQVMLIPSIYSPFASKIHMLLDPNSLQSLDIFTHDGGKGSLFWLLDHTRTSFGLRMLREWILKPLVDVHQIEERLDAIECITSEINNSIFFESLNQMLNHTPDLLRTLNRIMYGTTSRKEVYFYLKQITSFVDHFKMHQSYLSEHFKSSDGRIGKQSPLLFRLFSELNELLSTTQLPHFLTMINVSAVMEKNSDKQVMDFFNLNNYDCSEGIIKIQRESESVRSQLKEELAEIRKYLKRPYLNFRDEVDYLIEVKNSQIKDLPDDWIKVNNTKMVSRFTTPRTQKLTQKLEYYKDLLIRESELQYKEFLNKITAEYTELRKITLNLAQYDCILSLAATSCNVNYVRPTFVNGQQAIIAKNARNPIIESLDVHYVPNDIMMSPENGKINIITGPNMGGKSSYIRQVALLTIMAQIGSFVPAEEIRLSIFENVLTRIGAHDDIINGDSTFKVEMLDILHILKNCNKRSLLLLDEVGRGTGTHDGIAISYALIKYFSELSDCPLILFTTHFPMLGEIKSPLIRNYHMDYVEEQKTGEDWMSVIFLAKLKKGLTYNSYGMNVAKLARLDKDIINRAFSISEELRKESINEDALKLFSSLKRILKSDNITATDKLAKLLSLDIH

[2] = biological target: T2, Msh2-Msh3 (Saccharomyces cerevisiae, UniProt P25336+P25847); assay: as above; type: biochemical
T2 sequence (P25847 1-964): T1 sequence (P25847 1-964)
T2 sequence (P25336 1-1018): T1 sequence (P25336 1-1018 Y942A) with A942Y

[3] = biological target: T2, Msh2-Msh3; assay: nitrocellulose filter binding, competition with […]-ATPγS after ADP pre-binding; conditions: no DNA; 0.5 mM ADP, 8 μM ATPγS, 50 nM protein

fraction of ATPγS bound relative to no ADP, 30 s [3] [fraction] | Compound | pIC50 [1] | pIC50 [2]
– | Nc1ncnc2c1ncn2[C@@H]1O[C@H](CO[P@](=O)(O)O[P@](=O)(O)O[P@@](=O)(O)S)[C@@H](O)[C@H]1O [ATPγS] | 3.10 | 2.20
0.54 ± 0.15 | Nc1ncnc2c1ncn2[C@@H]1O[C@H](COP(=O)(O)OP(=O)(O)O)[C@@H](O)[C@H]1O [ADP] | – | –
